Numbered stars: 1 amine (or outer) side, 2 acyl side, 3 side chain; on linkers, the order of the positions; unused ones are H or OH. Bridge positions count the residues as written; N and C are the ends. Square brackets hold non-standard residues; d marks the D form. Peptide text beside a SMILES is read from it. Trp(5-F) = N[C@@H](Cc1c[nH]c2ccc(F)cc12)C(=O)O; Lys(Me3) = C[N+](C)(C)CCCC[C@H](N)C(=O)O; X1 = O=C(CCSCc1cccc(CSCCN[*:1])c1)[*:2]; mXylylene = c1cc(C[*:1])cc(C[*:2])c1; αMeP = C[C@@]1(C(=O)O)CCCN1; Mpa = O=C(O)CCS
Experiments:
[1] = AUC (0 to infinity) in C57BL/6 mouse at 1 mg/kg, iv by LC-MS/MS analysis; assay type: ADME, organism-based; design: route intravenous, time infinity, dose 1 mg/kg; conditions: C57BL/6, mouse, in vivo
[2] = AUC (0 to X) in C57BL/6 mouse at 1 mg/kg, iv by LC-MS/MS analysis; assay type: ADME, organism-based; design: dose 1 mg/kg; conditions: in vivo
[3] = Clearance in C57BL/6 mouse at 1 mg/kg, iv by LC-MS/MS analysis; assay type: ADME, organism-based; conditions: in vivo
[4] = Volume of distribution at steady state in C57BL/6 mouse at 1 mg/kg, iv by LC-MS/MS analysis; assay type: ADME, organism-based; conditions: in vivo, read-out: Vdss
[5] = Half life in C57BL/6 mouse at 1 mg/kg, iv by LC-MS/MS analysis; assay type: ADME, organism-based; conditions: in vivo
[6] = Protein binding in mouse plasma at 2.5 uM measured after 4 hrs by equilibrium dialysis based LC-MS/MS analysis; assay type: ADME, cell-free; conditions: read-out: PPB (converted)
Chymotrypsinogen A = Chymotrypsinogen A (Bos taurus, UniProt P00766); assay: Enzymatic stability assessed as bovine pancreatic alpha-chymotrypsin-mediated compound hydrolysis by measuring parent compound remaining at 100 uM incubated for 1 hr by LC-MS/MS analysis; assay type: ADME; conditions: cattle, read-out: Stabilty
[7] = biological target: Chymotrypsin-like elastase family member 1 (Sus scrofa, UniProt P00772); assay: Enzymatic stability assessed as porcine type 4 pancreatic elastase-mediated compound hydrolysis by measuring parent compound remaining at 100 uM incubated for 1 hr by LC-MS/MS analysis; assay type: ADME; conditions: pig, read-out: Stabilty
[8] = Enzymatic stability assessed as porcine pepsin-mediated compound hydrolysis by measuring parent compound remaining at 100 uM incubated for 1 hr by LC-MS/MS analysis; assay type: ADME, Sus scrofa; conditions: pig, read-out: Stabilty
[9] = Enzymatic stability assessed as bovine pancreatic trypsin-mediated compound hydrolysis by measuring parent compound remaining at 100 uM incubated for 1 hr by LC-MS/MS analysis; assay type: ADME, Bos taurus; conditions: cattle, read-out: Stabilty
[10] = Half life in C57BL/6 mouse whole blood at 100 uM by LC-MS/MS analysis; assay type: ADME, tissue-based
[11] = Half life in cynomolgus monkey whole blood at 100 uM by LC-MS/MS analysis; assay type: ADME, tissue-based, Macaca fascicularis
[12] = biological target: Proprotein convertase subtilisin/kexin type 9 (Homo sapiens, UniProt Q8NBP7); assay: Inhibition of AlexaFluor647-tagged cyclic peptide binding to avi-tagged-biotinylated human PCSK9 measured after 2 hrs by Lance Streptavidin Europium based FRET assay
[13] = AUC (0 to infinity) in Wistar Han rat at 1 mg/kg, iv by LC-MS/MS analysis; assay type: ADME, organism-based; design: route intravenous, time infinity, dose 1 mg/kg; conditions: in vivo
[14] = AUC (0 to X) in Wistar Han rat at 1 mg/kg, iv by LC-MS/MS analysis; assay type: ADME, organism-based; design: dose 1 mg/kg; conditions: in vivo
[15] = Volume of distribution at steady state in Wistar Han rat at 1 mg/kg, iv by LC-MS/MS analysis; assay type: ADME, organism-based; conditions: in vivo, read-out: Vdss
[16] = Half life in Wistar Han rat at 1 mg/kg, iv by LC-MS/MS analysis; assay type: ADME, organism-based; conditions: in vivo
[17] = Protein binding in Wistar Han rat plasma; assay type: ADME, cell-free; conditions: read-out: PPB (converted)
[18] = AUC (0 to infinity) in cynomolgus monkey at 0.5 mg/kg, iv by LC-MS/MS analysis; assay type: ADME, organism-based, Macaca fascicularis; design: time infinity, route intravenous, dose 0.5 mg/kg; conditions: in vivo
[19] = AUC (0 to X) in cynomolgus monkey at 0.5 mg/kg, iv by LC-MS/MS analysis; assay type: ADME, organism-based, Macaca fascicularis; design: dose 0.5 mg/kg; conditions: in vivo
[20] = Clearance in cynomolgus monkey at 0.5 mg/kg, iv by LC-MS/MS analysis; assay type: ADME, organism-based, Macaca fascicularis; conditions: in vivo
[21] = Volume of distribution at steady state in cynomolgus monkey at 0.5 mg/kg, iv by LC-MS/MS analysis; assay type: ADME, organism-based, Macaca fascicularis; conditions: in vivo, read-out: Vdss
[22] = Half life in cynomolgus monkey at 0.5 mg/kg, iv by LC-MS/MS analysis; assay type: ADME, organism-based, Macaca fascicularis; conditions: in vivo
[23] = Protein binding in cynomolgus monkey plasma; assay type: ADME, cell-free, Macaca fascicularis; conditions: read-out: PPB (converted)
PCSK9/LDLR = PCSK9/LDLR (Homo sapiens, UniProt Q8NBP7); assay: Inhibition of avi-tagged-biotinylated human PCSK9 interaction with His-tagged human LDLR EGFa domain by LANCE Ulight Streptavidin based TR-FRET assay; assay type: protein assay
[24] = Induction of mast cell degranulation in Wistar rat isolated peritoneal cells assessed as effect on histamine release measured after 30 mins; assay type: tissue-based
[25] = Cytotoxicity against Wistar rat isolated peritoneal cells assessed as reduction in cell viability up to 60 uM measured after 30 mins; assay type: cell-based; conditions: peritoneal macrophage cell, 0.5 h
[26] = Clearance in Wistar Han rat at 1 mg/kg, iv by LC-MS/MS analysis; assay type: ADME, organism-based; conditions: in vivo

Chymotrypsin-like elastase family member 1, sequence (P00772 whole entry): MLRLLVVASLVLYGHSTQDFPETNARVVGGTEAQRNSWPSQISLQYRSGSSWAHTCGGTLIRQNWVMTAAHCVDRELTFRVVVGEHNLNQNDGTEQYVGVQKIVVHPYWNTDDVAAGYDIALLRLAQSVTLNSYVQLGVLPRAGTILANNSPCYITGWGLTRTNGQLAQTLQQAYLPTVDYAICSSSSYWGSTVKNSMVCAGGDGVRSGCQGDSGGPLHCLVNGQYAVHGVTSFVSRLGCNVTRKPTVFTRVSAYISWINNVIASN
Proprotein convertase subtilisin/kexin type 9, sequence (Q8NBP7 31-152 limits assumed): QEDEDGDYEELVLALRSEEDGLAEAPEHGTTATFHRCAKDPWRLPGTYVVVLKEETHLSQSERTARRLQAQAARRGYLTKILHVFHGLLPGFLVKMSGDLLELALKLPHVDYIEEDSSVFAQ
Proprotein convertase subtilisin/kexin type 9, sequence (Q8NBP7 153-692 limits assumed): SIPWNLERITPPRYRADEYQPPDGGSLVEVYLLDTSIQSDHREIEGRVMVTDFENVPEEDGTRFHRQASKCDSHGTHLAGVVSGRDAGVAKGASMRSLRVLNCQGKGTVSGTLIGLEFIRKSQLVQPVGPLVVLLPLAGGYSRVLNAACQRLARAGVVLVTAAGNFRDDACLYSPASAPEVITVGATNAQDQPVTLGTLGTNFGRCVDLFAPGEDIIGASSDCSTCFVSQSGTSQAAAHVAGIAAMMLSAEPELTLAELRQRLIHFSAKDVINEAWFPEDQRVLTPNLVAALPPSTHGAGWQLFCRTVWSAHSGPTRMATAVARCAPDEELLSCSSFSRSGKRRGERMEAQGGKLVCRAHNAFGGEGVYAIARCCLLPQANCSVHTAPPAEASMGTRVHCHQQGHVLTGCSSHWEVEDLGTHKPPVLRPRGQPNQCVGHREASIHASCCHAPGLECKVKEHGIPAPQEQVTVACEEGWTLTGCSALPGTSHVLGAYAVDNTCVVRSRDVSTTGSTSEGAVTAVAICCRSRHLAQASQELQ
PCSK9/LDLR, sequence (Q8NBP7 31-152 limits assumed): as the sequence (Q8NBP7 31-152 limits assumed) above
PCSK9/LDLR, sequence (Q8NBP7 153-692 limits assumed): as the sequence (Q8NBP7 153-692 limits assumed) above
PCSK9/LDLR, sequence (P01130 22-860 partner limits assumed): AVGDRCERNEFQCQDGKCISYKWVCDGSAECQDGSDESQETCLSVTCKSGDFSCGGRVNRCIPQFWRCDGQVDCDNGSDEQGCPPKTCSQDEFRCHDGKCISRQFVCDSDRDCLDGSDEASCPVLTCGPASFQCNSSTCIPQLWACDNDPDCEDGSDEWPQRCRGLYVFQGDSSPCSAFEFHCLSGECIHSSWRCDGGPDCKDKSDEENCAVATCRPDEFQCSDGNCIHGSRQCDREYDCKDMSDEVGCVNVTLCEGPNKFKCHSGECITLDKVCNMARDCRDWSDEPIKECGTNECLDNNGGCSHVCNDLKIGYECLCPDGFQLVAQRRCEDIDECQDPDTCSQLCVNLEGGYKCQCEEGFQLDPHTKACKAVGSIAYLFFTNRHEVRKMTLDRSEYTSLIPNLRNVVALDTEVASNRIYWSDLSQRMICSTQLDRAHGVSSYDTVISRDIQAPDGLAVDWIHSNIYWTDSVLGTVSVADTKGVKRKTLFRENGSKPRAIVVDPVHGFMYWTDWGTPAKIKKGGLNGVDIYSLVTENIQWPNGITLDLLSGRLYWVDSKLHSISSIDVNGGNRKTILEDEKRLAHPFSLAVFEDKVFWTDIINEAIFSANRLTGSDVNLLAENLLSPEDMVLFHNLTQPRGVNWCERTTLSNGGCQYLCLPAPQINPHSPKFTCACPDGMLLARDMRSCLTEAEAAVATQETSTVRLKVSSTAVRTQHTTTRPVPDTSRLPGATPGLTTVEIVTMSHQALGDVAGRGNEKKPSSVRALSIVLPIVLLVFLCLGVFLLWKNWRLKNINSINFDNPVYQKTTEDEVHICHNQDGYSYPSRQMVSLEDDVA

SMILES: COc1ccc(C[C@@H]2NC(=O)[C@H]([C@@H](C)O)NC(=O)[C@@H]3CCC(=O)NCc4cccc(c4)C[C@H](NC(=O)[C@@H](C)NC(=O)[C@H](C)NC(=O)CCSCc4cccc(c4)CSCCNC(=O)[C@]4(C)CCCN4C2=O)C(=O)N[C@@H](Cc2c[nH]c4ccc(F)cc24)C(=O)N3)cc1
- AUC(0-inf) [1]: 0.841 µM·h
- AUC [2]: 0.84 µM·h
- clearance [3]: 16 mL/min/kg
- Vd [4]: 0.23 L/kg
- half-life [5]: 0.66 h
- fraction unbound at 4 h, 2.5 µM [6]: 0.015
- remaining at 1 h, 100 µM (Chymotrypsinogen A): 2.5%
- remaining at 1 h, 100 µM [7]: 100%
- remaining at 1 h, 100 µM [8]: 98.2%
- remaining at 1 h, 100 µM [9]: 100%
- half-life at 100 µM [10]: > 6 h
- half-life at 100 µM [11]: 1.88 h
- Ki [12]: 1.5 nM

SMILES: COc1ccc(C[C@@H]2NC(=O)[C@H]([C@@H](C)O)NC(=O)[C@@H]3CCCN3C(=O)[C@@H]3Cc4cn(c5ccc(F)cc45)Cc4cn(nn4)-c4cc(cc(c4)CSCCC(=O)N[C@@H](C)C(=O)N[C@H](C)C(=O)N[C@@H](Cc4c[nH]c5ccc(F)cc45)C(=O)N3)CSCCNC(=O)[C@]3(C)CCCN3C2=O)cc1
- remaining at 1 h, 100 µM (Chymotrypsinogen A): 91.8%
- remaining at 1 h, 100 µM [7]: 96.6%
- remaining at 1 h, 100 µM [8]: 98.9%
- remaining at 1 h, 100 µM [9]: 99.2%
- half-life at 100 µM [11]: > 6 h
- Ki [12]: 1.36 nM
- AUC [13]: 0.0233 µM·h
- AUC [14]: 0.0194 µM·h
- Vd [15]: 0.48 L/kg
- half-life [16]: 0.06 h
- fraction unbound [17]: 0.003
- AUC(0-inf) [18]: 0.306 µM·h
- AUC [19]: 0.304 µM·h
- clearance [20]: 20.1 mL/min/kg
- Vd [21]: 1.06 L/kg
- half-life [22]: 2.84 h
- fraction unbound [23]: 0.025

SMILES: C[C@@]12CCCN1C(=O)[C@H](Cc1ccc(O)cc1)NC(=O)[C@H](Cc1cnc[nH]1)NC(=O)[C@H](CC(=O)O)NC(=O)[C@H](Cc1c[nH]c3ccc(F)cc13)NC(=O)[C@H](Cc1c[nH]c3ccc(F)cc13)NC(=O)CNC(=O)[C@H](CCCCN)NC(=O)CCSCc1cccc(c1)CSC[C@@H](C(N)=O)NC2=O ([Mpa]KG[Trp(5-F)][Trp(5-F)]DHY[αMeP]C-NH2; linker 1-10 via mXylylene)
- Ki (PCSK9/LDLR): 14 nM
- AUC(0-inf) [1]: 0.181 µM·h
- AUC [2]: 0.185 µM·h
- clearance [3]: 65.4 mL/min/kg
- Vd [4]: 1.2 L/kg
- half-life [5]: 0.33 h
- fraction unbound at 4 h, 2.5 µM [6]: 0.0515
- remaining at 1 h, 100 µM (Chymotrypsinogen A): 10.9%
- remaining at 1 h, 100 µM [7]: 52.7%
- remaining at 1 h, 100 µM [8]: 94%
- remaining at 1 h, 100 µM [9]: 0.9%
- half-life at 100 µM [10]: 5.19 h
- half-life at 100 µM [11]: > 6 h
- Ki [12]: 4 nM
- EC50 ([24]; Rattus norvegicus, Wistar, Mast cell, 0.5 h, read-out: EC50): 6670 nM
- Activity [25]: Non-Toxic

SMILES: COc1ccc(C[C@@H]2NC(=O)[C@H](Cc3cnc[nH]3)NC(=O)[C@H](CC(=O)O)NC(=O)[C@H](Cc3c[nH]c4ccc(F)cc34)NC(=O)[C@H](Cc3c[nH]c4ccc(F)cc34)NC(=O)[C@@H](C)NC(=O)[C@H](CCCC[N+](C)(C)C)NC(=O)CCSCc3cccc(c3)CSCCNC(=O)[C@]3(C)CCCN3C2=O)cc1 (cyclo(DHY(Me)[αMeP][X1][Lys(Me3)][dA][Trp(5-F)][Trp(5-F)]))
- AUC(0-inf) [1]: 0.933 µM·h
- AUC [2]: 0.896 µM·h
- clearance [3]: 6.2 mL/min/kg
- Vd [4]: 0.45 L/kg
- half-life [5]: 1.16 h
- fraction unbound at 4 h, 2.5 µM [6]: 0.007
- remaining at 1 h, 100 µM (Chymotrypsinogen A): 24.2%
- remaining at 1 h, 100 µM [7]: 68.2%
- remaining at 1 h, 100 µM [8]: 87.5%
- remaining at 1 h, 100 µM [9]: 98.4%
- half-life at 100 µM [10]: > 6 h
- Ki [12]: 9.5 nM
- EC50 ([24]; mast cell): Non-Toxic
- Activity [25]: Non-Toxic
- AUC(0-inf) ([13]; Wistar Han): 3.65 µM·h
- AUC [14]: 3.65 µM·h
- clearance [26]: 3.16 mL/min/kg
- Vd [15]: 0.17 L/kg
- half-life [16]: 2.46 h
- fraction unbound [17]: 0.001

From ChEMBL document CHEMBL4699634, “Series of Novel and Highly Potent Cyclic Peptide PCSK9 Inhibitors Derived from an mRNA Display Screen and Optimized via Structure-Based Design” (J Med Chem, 2020)
